Source: US6906198B1, “Antipicornaviral compounds, their preparation and use” (Agouron Pharmaceuticals, Inc., priority 1998, dated 2005)

How the values were obtained:
[1] = Cytotoxicity in uninfected H1-HeLa cells (anticoxsackieviral assay, XTT); assay type: cell-based; details: human; 50% cytotoxic dose, uninfected H1-HeLa cells (Table 4)
Procedure: (§1) Coxsackievirus types A-21 (CAV-21) and B3 (CVB-3) were purchased from American Type Culture Collection (ATCC, Rockville, Md.). Virus stocks were propagated and antiviral assays were performed in H1-HeLa cells (ATCC). Cells were grown in minimal essential medium with 10% fetal bovine serum (Life Technologies, Gaithersburg, Md.).
(§2) The ability of compounds to protect cells against either CAV-21 or CVB-3 infection was measured by the XTT dye reduction method. This method is described in Weislow et al., J. Natl. Cancer Inst. 1989, vol. 81, 577-586. H1-HeLa cells were infected with CAV-21 or CVB-3 at a multiplicity of infection (m.o.i.) of 0.025 or 0.075, respectively, or mock-infected with medium only. H1-HeLa cells were plated at 4×10^4 cells per well in a 96-well plate and incubated with appropriate concentrations of the test compound. One day (CVB-3) or two days (CAV-21) later, XTT/PMS was added to test plates and the amount of formazan produced was quantified spectrophotometrically at 450/650 nm. The EC50 was calculated as the concentration of compound that increased the formazan production in compound-treated, virus-infected cells to 50% of that produced by compound-free, uninfected cells. The 50% cytotoxic dose (CC50) was calculated as the concentration of compound that decreased formazan production in compound-treated, uninfected cells to 50% of that produced in compound-free, uninfected cells. The therapeutic index (TI) was calculated by dividing the CC50 by the EC50.

[2] = Cytotoxicity in mock-infected H1-HeLa cells (antirhinoviral assay, XTT); assay type: cell-based; details: human, 50% cytotoxic dose
Procedure: (§3) H1-HeLa cells were infected with HRV-14 at a multiplicity of infection (m.o.i.) of 0.13 (virus particles/cell) or mock-infected with medium only. Infected or mock-infected cells were resuspended at 8×10^5 cells per mL, and incubated with appropriate concentrations of the compounds to be tested. Two days later, XTT/PMS was added to test plates and the amount of formazan produced was quantified spectrophotometrically at 450/650 nm. The EC50 value was calculated as the concentration of compound that increased the percentage of formazan production in compound-treated, virus-infected cells to 50% of that produced by compound-free, mock-infected cells. The 50% cytotoxic dose (CC50) was calculated as the concentration of compound that decreased the percentage of formazan produced in compound-treated, mock-infected cells to 50% of that produced by compound-free, mock-infected cells. The therapeutic index (TI) was calculated by dividing the CC50 value by the EC50 value.
(§4) All strains of human rhinovirus (HRV) for use in this assay were purchased from American Type Culture Collection (ATCC), except for HRV serotype-14 (produced from the infectious cDNA clone constructed by Dr. Robert Rueckert, Institute for Molecular Virology, University of Wisconsin, Madison, Wis.). HRV stocks were propagated and viral assays were performed in H1-HeLa cells (ATCC). Cells were grown in minimal essential medium with 10% fetal bovine serum, available from Life Technologies (Gaithersburg, Md.).

[3] = Cytotoxicity in uninfected MRC-5 cells (anti-echoviral/-enteroviral assay, XTT); assay type: cell-based; details: human, 50% cytotoxic dose
Procedure: Echovirus type 11 (EV 11) and enterovirus type 70 (EV 70) were purchased from ATCC (Rockville, Md.). Virus stocks were propagated and antiviral assays were performed in MRC-5 cells (ATCC). Cells were grown in minimal essential medium with 10% fetal bovine serum (Life Technologies, Gaithersburg, Md.).
The ability of compounds to protect cells against either EV 11 or EV 70 infection was measured by the XTT dye reduction method (Weislow et al., J. Natl. Cancer Inst. 1989, vol. 81, 577-586). MRC-5 cells were infected with EV 11 or EV 70 at an m.o.i. of 0.003 or 0.004, respectively, or mock-infected with medium only. Infected or uninfected cells were added at 1×10^4 cells per well and incubated with appropriate concentrations of compound. Four days later, XTT/PMS was added to test plates, and the amount of formazan produced was quantified spectrophotometrically at 450/650 nm. The EC50 was calculated as the concentration of compound that increased the formazan production in compound-treated, virus-infected cells to 50% of that produced by compound-free, uninfected cells. The 50% cytotoxic dose (CC50) was calculated as the concentration of compound that decreased formazan production in compound-treated, uninfected cells to 50% of that produced in compound-free, uninfected cells. The therapeutic index (TI) was calculated by dividing the CC50 by the EC50.

[4] = test system: H1-HeLa cells; assay: Cytotoxicity in mock-infected H1-HeLa cells (antirhinoviral assay, XTT); assay type: cell-based; details: 50% cytotoxic dose
Procedure: as §3, §4

[5] = test system: HRV-14; assay: Antirhinoviral H1-HeLa cell culture assay (XTT), HRV-14; assay type: cell-based, human rhinovirus; details: HRV serotype-14, H1-HeLa cells (Table 3); read-out: EC50
Procedure: Antirhinoviral H1-HeLa Cell Culture Assay
In this cell protection assay, the ability of compounds to protect cells against HRV infection was measured by the XTT dye reduction method, which is described in Weislow et al., J. Natl. Cancer Inst. 1989, vol. 81, 577-586.
as §3, §4
The compounds were tested against control compounds WIN 51711, WIN 52084, and WIN 54954 (obtained from Sterling-Winthrop Pharmaceuticals), Pirodavir (obtained from Janssen Pharmaceuticals), and Pleconaril (prepared according to the method described in Diana et al., J. Med. Chem 1995, vol. 38, 1355). Antiviral data obtained for the test compounds are shown in Tables 1 and 3, where all data are for HRV serotype-14 unless otherwise noted in parentheses.

[6] = test system: H1-HeLa cells; assay: Cytotoxicity in uninfected H1-HeLa cells (anticoxsackieviral assay, XTT); assay type: cell-based; details: 50% cytotoxic dose, uninfected H1-HeLa cells (Table 4)
Procedure: as §1, §2

[7] = test system: Coxsackievirus type B3 (CVB-3); assay: Anticoxsackieviral cell culture assay (XTT), CVB-3; assay type: cell-based; details: CVB-3, H1-HeLa cells; read-out: EC50
Procedure: (§5) Anticoxsackieviral Cell Culture Assay
as §1
as §2, with “The 50% cytotoxic dose (CC50) was calculated as the concentration of compound that decreased formazan production in compound-treated, uninfected cells to 50% of that produced in compound-free, uninfected cells.” left out, “EC50. […]” for “EC50.”

[8] = test system: Coxsackievirus type A-21 (CAV-21); assay: Anticoxsackieviral cell culture assay (XTT), CAV-21; assay type: cell-based; details: CAV-21, H1-HeLa cells; read-out: EC50
Procedure: as §5, §1
as §2, with “The 50% cytotoxic dose (CC50) was calculated as the concentration of compound that decreased formazan production in compound-treated, uninfected cells to 50% of that produced in compound-free, uninfected cells.” left out, “EC50. […]” for “EC50.”

SMILES	CC50 [1] [µM]	CC50 at 2 days [2] [µM]	CC50 at 4 days [3] [µM]	CC50 [4] [µM]	EC50 [5] [µM]	CC50 [6] [µM]	EC50 [7] [µM]	EC50 [8] [µM]
CCOC(=O)c1ccc(OCCC2CCN(c3ccc(C)nn3)CC2)cc1 [Pirodavir, reference compound]	> 100	> 10	> 10	–	–	–	–	–
Cc1cc(CCCOc2c(C)cc(-c3noc(C(F)(F)F)n3)cc2C)on1 [Pleconaril, reference compound]	> 10	> 10	> 10	–	–	–	–	–
Cc1cc(CCCCCCCOc2ccc(C3=NCCO3)cc2)on1 [WIN 51711, reference compound]	–	–	–	> 60	0.78	–	–	–
Cc1cc(CCCCCCCOc2ccc(C3=N[C@@H](C)CO3)cc2)on1 [WIN 52084, reference compound]	–	–	–	> 10	0.07	–	–	–
Cc1cc(CCCCCOc2c(Cl)cc(C3=NCCO3)cc2Cl)on1 [WIN 54954, reference compound]	–	–	–	> 63	2.13	> 100	> 100	> 100
